Results: article PMC11053447, “Human ABC and SLC Transporters: The Culprit Responsible for Unspecific PSMA-617 Uptake?” (Pharmaceuticals, 2024)

Experiments:
MRP4 = molecular target: T1, MRP4 (Homo sapiens, UniProt O15439); experiment: Vesicular transport inhibition assay (ABC), MRP4-mediated DHEAS transport, HEK293 membrane vesicles; assay type: in vitro ADME; details: positive control inhibitor 150.0 µM, DHEAS probe
T1 construct: host or cells: HEK293 (membrane vesicles)
T1 sequence (O15439 1-1325): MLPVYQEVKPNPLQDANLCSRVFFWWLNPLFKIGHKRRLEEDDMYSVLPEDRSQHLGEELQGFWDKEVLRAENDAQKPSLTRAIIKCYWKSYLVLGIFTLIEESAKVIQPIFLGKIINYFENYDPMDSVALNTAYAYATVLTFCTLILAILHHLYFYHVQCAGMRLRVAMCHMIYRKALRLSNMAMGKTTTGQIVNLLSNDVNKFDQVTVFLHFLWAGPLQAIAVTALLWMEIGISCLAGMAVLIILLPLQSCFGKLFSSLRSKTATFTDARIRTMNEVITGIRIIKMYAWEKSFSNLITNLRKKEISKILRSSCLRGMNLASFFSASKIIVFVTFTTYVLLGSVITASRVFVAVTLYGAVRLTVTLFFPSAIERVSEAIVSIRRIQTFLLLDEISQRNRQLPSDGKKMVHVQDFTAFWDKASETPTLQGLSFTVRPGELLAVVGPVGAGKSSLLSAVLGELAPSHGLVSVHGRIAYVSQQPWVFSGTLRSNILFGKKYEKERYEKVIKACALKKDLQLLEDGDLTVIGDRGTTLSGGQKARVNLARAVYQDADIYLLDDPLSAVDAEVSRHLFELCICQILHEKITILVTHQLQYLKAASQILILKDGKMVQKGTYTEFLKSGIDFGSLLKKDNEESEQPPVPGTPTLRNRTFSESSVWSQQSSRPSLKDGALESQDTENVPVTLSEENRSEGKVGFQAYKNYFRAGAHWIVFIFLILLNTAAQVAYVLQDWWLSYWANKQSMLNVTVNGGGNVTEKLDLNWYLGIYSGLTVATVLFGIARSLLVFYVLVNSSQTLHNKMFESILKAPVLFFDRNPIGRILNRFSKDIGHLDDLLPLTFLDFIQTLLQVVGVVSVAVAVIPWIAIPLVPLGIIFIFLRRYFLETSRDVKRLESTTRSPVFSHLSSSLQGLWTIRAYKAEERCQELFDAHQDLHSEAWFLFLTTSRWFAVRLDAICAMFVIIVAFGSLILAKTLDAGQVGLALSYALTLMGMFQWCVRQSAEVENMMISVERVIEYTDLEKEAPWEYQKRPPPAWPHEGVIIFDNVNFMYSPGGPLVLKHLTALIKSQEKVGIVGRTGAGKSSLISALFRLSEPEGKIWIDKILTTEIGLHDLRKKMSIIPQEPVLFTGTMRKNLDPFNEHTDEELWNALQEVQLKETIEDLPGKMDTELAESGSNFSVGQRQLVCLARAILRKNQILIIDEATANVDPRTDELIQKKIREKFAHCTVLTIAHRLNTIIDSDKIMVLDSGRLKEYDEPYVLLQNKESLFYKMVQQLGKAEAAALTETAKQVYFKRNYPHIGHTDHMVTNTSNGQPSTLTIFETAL

MDR1 = MDR1 (Homo sapiens, UniProt P08183)
Method: The incubations were carried out in the presence of 4 mM ATP or AMP to distinguish between transporter-mediated uptake and passive diffusion into the vesicles. […] Afterwards, the reaction mixtures were pre-incubated for 15 min at 37 °C for MRP1 or at 32 °C for BCRP, MDR1 and MRP4, respectively. The transporter assay was initiated through the addition of 25 μL of pre-warmed 12 mM MgATP (or 12 mM AMP in assay buffer as a background control). The reactions were quenched through the addition of 200 μL of ice-cold washing buffer and immediate filtration via glass fiber filters mounted onto a 96-well plate (filter plate). The filters were washed (5 × 200 μL of ice-cold washing buffer) and dried, and the amount of probe substrate inside the filtered vesicles was determined using LSC. The experiments were conducted in triplicate.
Calculation of ATP-dependent transport and inhibition for vesicular transport inhibition
For all wells the amount of the translocated probe substrate was determined in counts per minute (cpm).
ATP-dependent transport (pmol/mg protein/min) is calculated for each concentration using the following
𝐴𝑐𝑐𝐴𝑇𝑃 ∙ 𝑉 ∙ 𝐶𝐶 𝐴𝑐𝑐𝐴𝑀𝑃 ∙𝑉 ∙𝐶𝐶
𝐴𝑇𝑃 − 𝑑𝑒𝑝𝑒𝑛𝑑𝑒𝑛𝑡 𝑎𝑐𝑐𝑢𝑚𝑢𝑙𝑎𝑡𝑖𝑜𝑛 = ( 𝑇𝐶𝑃𝑀 𝑠𝑢𝑏) − ( 𝑇𝐶𝑃𝑀 𝑠𝑢𝑏)
• AccATP: probe substrate accumulation with ATP (cpm)
• AccAMP: probe substrate accumulation with AMP (cpm)
• Tcpm: cpm in dosing solution V: volume per well (µL)
• CCsub: probe substrate concentration (µM)
• Prot: total protein per well (mg)
• t: incubation time (min)
Relative ATP-dependent transport (%) values were calculated using the following equation:
𝑅𝑒𝑙𝑎𝑡𝑖𝑣𝑒 𝐴𝑇𝑃 − 𝑑𝑒𝑝𝑒𝑛𝑑𝑒𝑛𝑡 𝑡𝑟𝑎𝑛𝑠𝑝𝑜𝑟𝑡 (%) = 𝐴 − 𝐵 ∙ 100
• A: amount of translocated substrate in the presence of test substance (TS) and ATP
• B: amount of translocated substrate in the presence of test substance (TS) and AMP
• C: amount of translocated substrate in the presence of solvent and ATP
• D: amount of translocated substrate in the presence of solvent and AMP
Relative inhibition (%) is calculated by setting probe substrate transport in the absence of test substance as
𝑅𝑒𝑙𝑎𝑡𝑖𝑣𝑒 𝑖𝑛ℎ𝑖𝑏𝑖𝑡𝑖𝑜𝑛 (%) = 𝐴𝑐𝑐𝑆𝑝𝑒𝑐𝑖𝑓𝑖𝑐,𝑥 ∙100
• Accspecific,x: transporter specific accumulation for a given sample (pmol/mg/min)
• Accspecific,vehicle: transporter specific accumulation for a solvent control (pmol/mg/min)
Data are expressed as mean (n=3)
N-methyl quinidine (NMQ) measured in the vesicular transport inhibition assay.
Nominal ATP Relative ATP Relative
Compound concentration [µM] dependent transport dependent transport inhibition [%]
[pmol/mg/min] [% of control]
Data are expressed as mean (n=3) ± SD.

[1] = design: method as in PMID 37191680; details: PSMA-null mice; cited from earlier work
[2] = design: method as in PMID 29651569; details: within the first 24 h post injection; cited from earlier work
[3] = cited from earlier work

Sequence of MDR1 (P08183 whole entry): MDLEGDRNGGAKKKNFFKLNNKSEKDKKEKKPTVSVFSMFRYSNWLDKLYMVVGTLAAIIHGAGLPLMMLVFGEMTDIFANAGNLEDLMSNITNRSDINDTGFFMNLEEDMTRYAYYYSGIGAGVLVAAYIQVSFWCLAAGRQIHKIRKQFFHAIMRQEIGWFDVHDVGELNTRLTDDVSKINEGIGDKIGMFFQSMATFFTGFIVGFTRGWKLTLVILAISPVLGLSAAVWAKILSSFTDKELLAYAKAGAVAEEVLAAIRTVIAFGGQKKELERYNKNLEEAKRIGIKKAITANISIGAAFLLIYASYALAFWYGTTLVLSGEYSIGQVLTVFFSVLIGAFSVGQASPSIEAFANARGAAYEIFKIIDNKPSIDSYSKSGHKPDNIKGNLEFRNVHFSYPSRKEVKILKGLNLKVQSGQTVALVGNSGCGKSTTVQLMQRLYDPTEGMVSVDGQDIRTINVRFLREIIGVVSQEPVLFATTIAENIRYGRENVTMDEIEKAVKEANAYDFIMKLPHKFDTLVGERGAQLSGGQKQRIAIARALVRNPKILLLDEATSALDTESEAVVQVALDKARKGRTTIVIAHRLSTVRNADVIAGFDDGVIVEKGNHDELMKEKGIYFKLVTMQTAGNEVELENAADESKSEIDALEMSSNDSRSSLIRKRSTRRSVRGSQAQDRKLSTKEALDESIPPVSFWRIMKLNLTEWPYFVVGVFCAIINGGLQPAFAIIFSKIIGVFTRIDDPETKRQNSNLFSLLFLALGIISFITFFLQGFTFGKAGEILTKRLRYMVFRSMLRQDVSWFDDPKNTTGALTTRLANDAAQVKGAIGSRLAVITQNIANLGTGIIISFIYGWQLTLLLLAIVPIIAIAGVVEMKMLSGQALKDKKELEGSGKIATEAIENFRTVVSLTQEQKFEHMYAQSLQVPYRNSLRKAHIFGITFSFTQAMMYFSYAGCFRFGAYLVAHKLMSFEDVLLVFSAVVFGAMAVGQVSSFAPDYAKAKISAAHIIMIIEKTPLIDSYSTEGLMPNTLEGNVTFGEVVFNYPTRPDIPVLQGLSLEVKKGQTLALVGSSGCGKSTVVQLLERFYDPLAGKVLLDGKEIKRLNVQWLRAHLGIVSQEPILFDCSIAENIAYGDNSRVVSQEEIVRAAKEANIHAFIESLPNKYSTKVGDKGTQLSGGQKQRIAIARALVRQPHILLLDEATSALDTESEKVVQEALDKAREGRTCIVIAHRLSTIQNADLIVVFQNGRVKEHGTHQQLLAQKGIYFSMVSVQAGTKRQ

For `CN(C)C(=O)CCSC(SCCC(=O)O)c1cccc(/C=C/c2ccc3ccc(Cl)cc3n2)c1` (stereo not drawn) [MK-571, reference compound], the inhibition at 1.5 min, 150 µM (MRP4; human, probe dehydroepiandrosterone sulfate (DHEAS), 0.5 µM, read-out: Relative inhibition) was 98%, the ATP dependent transport (MRP4; mean (n=3) ± SD) was 256.00 ± 59.15 pmol/mg/min and the “Relative ATP dependent transport” value (MRP4; mean (n=3) ± SD) was 2.06 ± 0.48 % of control.
In the case of `C/C=C/C[C@@H](C)C(=O)[C@H]1C(=O)N[C@@H](C(C)C)C(=O)N(C)CC(=O)N(C)[C@@H](CC(C)C)C(=O)N[C@@H](C(C)C)C(=O)N(C)[C@@H](CC(C)C)C(=O)N[C@@H](C)C(=O)N[C@H](C)C(=O)N(C)[C@@H](CC(C)C)C(=O)N(C)[C@@H](CC(C)C)C(=O)N(C)[C@@H](C(C)C)C(=O)N1C` [Valspodar, reference compound], the inhibition at 1 min, 1 µM (MDR1; human, probe N-methyl quinidine (NMQ), 1.0 µM) is reported as 96% and the “Relative ATP dependent transport” value (MDR1; positive control inhibitor 1.00 µM, NMQ probe, mean (n=3) ± SD) is reported as 4.28 ± 0.62 % of control.
For `O=C([O-])CN(CCN(CC(=O)[O-])Cc1cc(CCC(=O)NCCCCCC(=O)NCCCC[C@H](NC(=O)N[C@@H](CCC(=O)O)C(=O)O)C(=O)O)ccc1[O-])Cc1cc(CCC(=O)O)ccc1[O-].[68Ga+3].[OH3+]` [[^68Ga]Ga-PSMA-11], the “Uptake by healthy kidneys and SGs” value [1] is given as “greatly reduced uptake”.
In the case of `O=C([O-])CN1CCN(CC(=O)[O-])CCN(CC(=O)NCC2CCC(C(=O)NC(Cc3ccc4ccccc4c3)C(=O)NCCCCC(NC(=O)NC(CCC(=O)O)C(=O)O)C(=O)O)CC2)CCN(CC(=O)[O-])CC1.[177Lu+3]` (stereo not drawn) [[^177Lu]Lu-PSMA-617], the “Excreted via the renal route in urine” value [2] is given as “up to 70%”, the “Accumulation in the kidneys” value ([3]; kidneys) is given as 0.5–0.6 Gy/GBq injected dose and the “Accumulation in the salivary glands” value ([3]; salivary glands (SGs)) is given as “up to 1 Gy/GBq injected dose”.
